Measured values published in patent US20190327974A1, “SYNERGISTS FOR IMPROVED PESTICIDES” (priority 2017, published 2019).

Legend:
Assay in all cases: Protease selectivity panel
Type in all cases: biochemical
Conditions in all cases: 100 μM compound, n = 2
GranzymeA = target: T1, GranzymeA (Homo sapiens, UniProt P12544)
T1 construct: purchased ENZO
T1 sequence (P12544 29-262): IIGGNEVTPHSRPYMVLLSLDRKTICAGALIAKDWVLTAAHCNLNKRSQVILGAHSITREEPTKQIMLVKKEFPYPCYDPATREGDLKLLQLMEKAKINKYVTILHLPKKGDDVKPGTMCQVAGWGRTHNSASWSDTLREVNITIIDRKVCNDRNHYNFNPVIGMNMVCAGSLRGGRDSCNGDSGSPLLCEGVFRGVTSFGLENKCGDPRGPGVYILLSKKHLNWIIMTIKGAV
Procedure: (§1) Test compounds were dissolved in 100% DMSO to make 10 mM stock. Final compound concentration in assay is […]. Compounds were tested in duplicate wells at single concentration and the final concentration of DMSO in all assays was kept at 1%. Five reference compounds, AEBSF, Carfilzomib, Granzyme B Inhibitor II, Dec-RVKR-CMK, and Teneligliptin hydrobromide, were tested in an identical manner with 8 concentration points at 5× dilutions.

PSMB10 = target: T2, PSMB10 (Homo sapiens, UniProt P40306)
T2 construct: purchased BOSTON-BIOCHEM
Procedure: as §1

PSMB8 = target: T3, PSMB8 (Homo sapiens, UniProt P28062)
T3 construct: purchased BOSTON-BIOCHEM
Procedure: as §1

PSMB9 = target: T4, PSMB9 (Homo sapiens, UniProt P28065)
T4 construct: purchased BOSTON-BIOCHEM
Procedure: as §1

GranzymeK = target: T5, GranzymeK (Homo sapiens, UniProt P49863)
T5 construct: purchased ENZO
T5 sequence (P49863 27-264): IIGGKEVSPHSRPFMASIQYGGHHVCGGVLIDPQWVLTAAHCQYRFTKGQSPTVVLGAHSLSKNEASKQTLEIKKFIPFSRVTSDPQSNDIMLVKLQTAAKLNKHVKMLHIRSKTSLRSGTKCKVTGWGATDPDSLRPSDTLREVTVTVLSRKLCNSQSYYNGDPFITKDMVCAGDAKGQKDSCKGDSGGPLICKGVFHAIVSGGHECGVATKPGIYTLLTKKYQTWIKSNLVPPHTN
Procedure: as §1

PSMB6 = target: T6, PSMB6 (Homo sapiens, UniProt P28072)
T6 construct: purchased BOSTON-BIOCHEM
Procedure: as §1

tPA = target: T7, tPA (Homo sapiens, UniProt P00750)
T7 construct: purchased R&D Systems
Procedure: as §1

DPP8 = target: T8, DPP8 (Homo sapiens, UniProt Q6V1X1)
T8 construct: purchased ENZO
Procedure: as §1

GranzymeB = target: T9, GranzymeB (Homo sapiens, UniProt P10144)
T9 construct: purchased ENZO
Procedure: as §1

Plasma-Kallikrein = target: T10, Plasma-Kallikrein (Homo sapiens, UniProt P03952)
T10 construct: purchased R&D Systems
Procedure: as §1

Kallikrein13 = target: T11, Kallikrein13 (Homo sapiens, UniProt Q9UKR3)
T11 construct: purchased R&D Systems
T11 sequence (Q9UKR3 26-277 limits assumed): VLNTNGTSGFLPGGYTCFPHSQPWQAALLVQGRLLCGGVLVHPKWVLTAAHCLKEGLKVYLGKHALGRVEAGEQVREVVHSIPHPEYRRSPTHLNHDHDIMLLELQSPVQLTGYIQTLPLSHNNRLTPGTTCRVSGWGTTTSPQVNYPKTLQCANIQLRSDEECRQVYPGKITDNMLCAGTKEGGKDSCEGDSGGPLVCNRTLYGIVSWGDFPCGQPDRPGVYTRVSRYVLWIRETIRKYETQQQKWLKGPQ
Procedure: as §1

Plasmin = target: T12, Plasmin (Homo sapiens, UniProt P00747)
T12 construct: purchased R&D Systems
Procedure: as §1

DPP4 = target: T13, DPP4 (Homo sapiens, UniProt P27487)
T13 construct: purchased ENZO
Procedure: as §1

Prolyl Oligopeptidase = target: T14, Prolyl Oligopeptidase (Homo sapiens, UniProt P48147)
T14 construct: purchased R&D Systems
T14 sequence (P48147 1-710): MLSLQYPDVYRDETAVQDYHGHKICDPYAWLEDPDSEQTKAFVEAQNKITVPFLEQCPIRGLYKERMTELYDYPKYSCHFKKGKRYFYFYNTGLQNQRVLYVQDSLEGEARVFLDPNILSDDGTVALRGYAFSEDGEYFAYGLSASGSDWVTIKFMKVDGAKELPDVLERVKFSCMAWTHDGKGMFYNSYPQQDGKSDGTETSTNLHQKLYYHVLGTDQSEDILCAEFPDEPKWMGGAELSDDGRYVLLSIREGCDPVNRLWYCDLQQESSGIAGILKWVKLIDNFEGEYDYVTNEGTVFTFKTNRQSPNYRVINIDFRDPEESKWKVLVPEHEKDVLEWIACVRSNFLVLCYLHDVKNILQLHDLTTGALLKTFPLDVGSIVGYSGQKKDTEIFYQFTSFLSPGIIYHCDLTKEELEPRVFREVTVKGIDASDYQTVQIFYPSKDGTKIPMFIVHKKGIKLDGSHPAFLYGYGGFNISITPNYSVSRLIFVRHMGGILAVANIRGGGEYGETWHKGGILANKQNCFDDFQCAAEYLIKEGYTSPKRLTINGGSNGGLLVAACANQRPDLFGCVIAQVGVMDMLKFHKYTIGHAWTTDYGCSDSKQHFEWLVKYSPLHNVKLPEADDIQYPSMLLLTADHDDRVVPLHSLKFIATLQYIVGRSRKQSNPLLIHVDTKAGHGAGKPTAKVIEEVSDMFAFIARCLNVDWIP
Procedure: as §1

T9 sequence (P10144 21-247): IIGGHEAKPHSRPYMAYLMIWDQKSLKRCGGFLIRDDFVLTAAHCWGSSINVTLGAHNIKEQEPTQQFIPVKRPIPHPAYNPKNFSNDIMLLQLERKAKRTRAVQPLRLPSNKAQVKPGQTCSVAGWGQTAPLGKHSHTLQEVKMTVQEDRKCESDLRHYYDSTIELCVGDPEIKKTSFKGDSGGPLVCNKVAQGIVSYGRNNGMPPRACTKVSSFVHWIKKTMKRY
T10 sequence (P03952 20-638): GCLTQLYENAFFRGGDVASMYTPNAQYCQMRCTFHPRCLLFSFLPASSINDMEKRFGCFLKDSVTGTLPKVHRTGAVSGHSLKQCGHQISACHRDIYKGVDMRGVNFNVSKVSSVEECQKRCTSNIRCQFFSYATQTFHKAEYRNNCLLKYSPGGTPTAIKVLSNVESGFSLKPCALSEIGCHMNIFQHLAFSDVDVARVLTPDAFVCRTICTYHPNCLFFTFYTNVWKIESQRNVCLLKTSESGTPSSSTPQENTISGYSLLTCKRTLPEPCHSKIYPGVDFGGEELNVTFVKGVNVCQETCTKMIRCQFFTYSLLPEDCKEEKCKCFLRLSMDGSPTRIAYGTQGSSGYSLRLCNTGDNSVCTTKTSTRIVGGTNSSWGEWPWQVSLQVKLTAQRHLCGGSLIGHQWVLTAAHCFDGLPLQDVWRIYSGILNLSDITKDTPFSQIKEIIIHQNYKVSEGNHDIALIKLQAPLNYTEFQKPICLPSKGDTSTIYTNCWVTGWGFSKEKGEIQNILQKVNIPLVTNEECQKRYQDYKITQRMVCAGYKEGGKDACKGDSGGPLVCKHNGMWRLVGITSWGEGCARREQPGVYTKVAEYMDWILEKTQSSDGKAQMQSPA
T8 sequence (Q6V1X1 whole entry): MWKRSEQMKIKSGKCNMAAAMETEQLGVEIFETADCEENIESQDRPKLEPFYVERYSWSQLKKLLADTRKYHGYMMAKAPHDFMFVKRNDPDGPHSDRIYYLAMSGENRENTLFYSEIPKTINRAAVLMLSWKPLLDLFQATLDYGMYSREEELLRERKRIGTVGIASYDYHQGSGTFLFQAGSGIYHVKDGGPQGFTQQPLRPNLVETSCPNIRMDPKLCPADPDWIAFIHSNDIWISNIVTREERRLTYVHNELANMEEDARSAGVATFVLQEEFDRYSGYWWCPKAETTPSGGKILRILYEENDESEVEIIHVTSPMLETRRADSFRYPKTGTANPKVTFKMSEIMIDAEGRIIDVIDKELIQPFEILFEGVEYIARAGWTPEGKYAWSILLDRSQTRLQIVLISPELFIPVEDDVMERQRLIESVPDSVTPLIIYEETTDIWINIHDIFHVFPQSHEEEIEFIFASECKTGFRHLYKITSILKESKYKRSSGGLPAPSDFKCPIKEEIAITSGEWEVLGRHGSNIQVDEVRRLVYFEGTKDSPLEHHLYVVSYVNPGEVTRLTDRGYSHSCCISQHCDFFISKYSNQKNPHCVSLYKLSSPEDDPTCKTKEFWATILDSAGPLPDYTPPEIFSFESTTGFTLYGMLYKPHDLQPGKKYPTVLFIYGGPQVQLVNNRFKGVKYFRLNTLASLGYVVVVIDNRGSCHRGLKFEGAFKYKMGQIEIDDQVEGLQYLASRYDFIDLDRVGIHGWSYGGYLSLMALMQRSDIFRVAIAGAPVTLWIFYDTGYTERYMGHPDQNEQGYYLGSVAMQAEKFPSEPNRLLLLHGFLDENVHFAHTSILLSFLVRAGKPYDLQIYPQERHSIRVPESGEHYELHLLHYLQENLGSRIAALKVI
T12 sequence (P00747 581-810 limits assumed): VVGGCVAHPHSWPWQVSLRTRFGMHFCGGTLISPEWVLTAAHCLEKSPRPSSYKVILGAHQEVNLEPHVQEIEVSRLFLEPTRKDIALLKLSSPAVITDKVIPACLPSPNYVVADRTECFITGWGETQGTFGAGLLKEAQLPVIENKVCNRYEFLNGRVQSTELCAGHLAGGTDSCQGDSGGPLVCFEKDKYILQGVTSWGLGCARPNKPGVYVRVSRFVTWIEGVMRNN
T12 sequence (P00747 97-580 partner limits assumed): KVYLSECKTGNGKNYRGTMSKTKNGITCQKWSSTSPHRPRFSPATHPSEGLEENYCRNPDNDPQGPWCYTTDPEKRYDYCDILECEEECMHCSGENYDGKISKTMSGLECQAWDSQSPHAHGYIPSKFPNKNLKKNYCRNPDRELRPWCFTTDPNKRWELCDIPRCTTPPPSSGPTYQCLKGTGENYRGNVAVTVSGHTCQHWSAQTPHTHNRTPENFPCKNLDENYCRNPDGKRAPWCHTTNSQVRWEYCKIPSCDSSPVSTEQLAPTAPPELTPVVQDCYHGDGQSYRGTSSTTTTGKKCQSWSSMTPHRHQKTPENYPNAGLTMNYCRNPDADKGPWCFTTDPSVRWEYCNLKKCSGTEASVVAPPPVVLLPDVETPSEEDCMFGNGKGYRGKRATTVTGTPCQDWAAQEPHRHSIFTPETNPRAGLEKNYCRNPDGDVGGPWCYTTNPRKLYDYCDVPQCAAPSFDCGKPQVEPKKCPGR
T13 sequence (P27487 whole entry): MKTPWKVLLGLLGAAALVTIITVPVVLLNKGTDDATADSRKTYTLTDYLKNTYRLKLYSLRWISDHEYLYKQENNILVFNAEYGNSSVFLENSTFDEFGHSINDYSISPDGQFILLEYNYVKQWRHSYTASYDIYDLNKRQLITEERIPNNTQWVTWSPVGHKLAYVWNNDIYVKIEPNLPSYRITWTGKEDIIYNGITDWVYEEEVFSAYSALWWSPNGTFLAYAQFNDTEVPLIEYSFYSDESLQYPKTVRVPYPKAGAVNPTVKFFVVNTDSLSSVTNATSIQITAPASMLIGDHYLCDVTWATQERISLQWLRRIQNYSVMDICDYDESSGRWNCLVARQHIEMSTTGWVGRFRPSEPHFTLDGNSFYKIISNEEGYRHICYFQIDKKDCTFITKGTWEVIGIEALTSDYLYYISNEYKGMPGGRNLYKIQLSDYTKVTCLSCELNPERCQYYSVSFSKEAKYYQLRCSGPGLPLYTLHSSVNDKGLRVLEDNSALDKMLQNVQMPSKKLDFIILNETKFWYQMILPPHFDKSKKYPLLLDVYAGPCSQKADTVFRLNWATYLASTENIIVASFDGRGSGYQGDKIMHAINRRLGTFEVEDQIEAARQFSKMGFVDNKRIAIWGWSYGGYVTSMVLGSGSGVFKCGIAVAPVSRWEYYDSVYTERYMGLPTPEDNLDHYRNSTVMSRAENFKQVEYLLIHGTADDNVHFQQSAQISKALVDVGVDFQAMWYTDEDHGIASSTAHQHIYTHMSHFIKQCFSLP
T7 sequence (P00750 36-562): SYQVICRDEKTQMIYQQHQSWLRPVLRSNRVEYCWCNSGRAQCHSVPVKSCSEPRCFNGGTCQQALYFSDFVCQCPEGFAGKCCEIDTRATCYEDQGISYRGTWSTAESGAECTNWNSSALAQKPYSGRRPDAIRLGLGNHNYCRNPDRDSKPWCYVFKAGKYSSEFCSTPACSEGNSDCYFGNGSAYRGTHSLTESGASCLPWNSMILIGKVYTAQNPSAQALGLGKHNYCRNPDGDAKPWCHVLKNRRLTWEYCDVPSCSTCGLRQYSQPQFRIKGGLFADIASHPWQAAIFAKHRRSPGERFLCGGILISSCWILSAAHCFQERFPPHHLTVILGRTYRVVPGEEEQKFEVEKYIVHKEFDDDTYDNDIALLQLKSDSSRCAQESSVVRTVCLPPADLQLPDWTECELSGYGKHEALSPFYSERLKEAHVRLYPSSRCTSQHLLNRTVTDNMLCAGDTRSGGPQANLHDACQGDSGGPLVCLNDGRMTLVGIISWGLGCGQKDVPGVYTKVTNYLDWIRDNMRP

| SMILES | inhibition at 100 µM (GranzymeA) | inhibition at 100 µM (PSMB10) | inhibition at 100 µM (PSMB8) | inhibition at 100 µM (PSMB9) | inhibition at 100 µM (GranzymeK) | inhibition at 100 µM (PSMB6) | inhibition at 100 µM (tPA) | inhibition at 100 µM (DPP8) | inhibition at 100 µM (GranzymeB) | inhibition at 100 µM (Plasma-Kallikrein) | inhibition at 100 µM (Kallikrein13) | inhibition at 100 µM (Plasmin) | inhibition at 100 µM (DPP4) | inhibition at 100 µM (Prolyl Oligopeptidase) |
| --- | --- | --- | --- | --- | --- | --- | --- | --- | --- | --- | --- | --- | --- | --- |
| OB(O)c1cc(Br)cc(N2CCCC2)c1 [Compound 3] | 12% | 43% | 19% | 12% | 5% | 16% | 26% | 42% | 3% | 6% | 3% | 13% | 6% | 61% |
| OB(O)c1cc(Br)cc(OCc2ccccc2)c1 [Compound 3.9] | 23% | 78% | 52% | 50% | 14% | 54% | 40% | 53% | 17% | 41% | -1% | 16% | 2% | 48% |
| OB(O)c1cc(Br)cc(Oc2ccccc2)c1 [Compound 3.10, 3-Bromo-5-phenoxyfenylboronic acid] | 12% | 45% | 49% | 15% | 3% | 27% | 19% | 37% | 11% | 64% | 0% | -2% | -3% | 30% |
